Measured values from US12053452B2 (priority 2021, dated 2024).
Entries after “also recorded” stand apart in the source; their conditions may differ. Like-named read-outs stand apart in the source and are kept apart here.

How the values were obtained:
C57 mice [1] = experiment: Sociability test, C57; format: in vivo
Method: (§1) This assay was conducted in adult male C57 and BTBR mice (n=6 per group) in a dedicated conditioning room where ambient light, sound, and human contact were tightly controlled. Social preference chambers consist of two polycarbonate boxes (13.5 cm wide×22.5 cm tall×31.0 cm deep), floored with rough-textured black ABS plastic, and connected to one another by a 1.25″ PVC T-junction. An infrared photobeam emitter/detector array is mounted at each intersection of the T-junction and each preference compartment, and as a mouse traversed the apparatus, it would break the photobeam upon entry to or exit from each preference compartment. Beam breaks started or stopped a counter on an interfaced computer, allowing automated collection of time spent in each compartment. At the end of each test, data were reported as time (in seconds) spent in each compartment, the number of entries into each compartment, and the average time spent in each compartment following an entry. Social preference tests were conducted in an iterative manner, with each test subject completing four distinct phases as described below. Between testing sessions, chambers were sanitized by wiping the insides with a disinfectant product provided by the UAMS Department of Laboratory Animal Medicine. At the end of the week (upon completion of all phases of the procedure), each apparatus was disassembled and all parts were sanitized. No food or water were available during social preference sessions, but were available in the home cage immediately afterwards.
A single sociability session occurred the day after the novelty preference test, where one compartment contained a wire mesh cup with a dummy mouse inside while the other compartment contained a male NIH Swiss stranger mouse inside the previously empty cup. […] The position of the dummy mouse (left or right compartment) remained the same for each subject as during the novelty test the day before, thereby counterbalancing the position of the stranger mouse across subjects. NIH Swiss stranger mice were similar in mass and appearance to the dummy PVC mice, and were housed separately from the experimental subjects (C57 and BTBR mice) in the colony facility. The first time the experimental subjects ever encountered the stranger mice was when they entered the compartment where they were contained. During this session, mice were weighed, administered the same injection as the day before, and returned to their home cage for a 30 min pretreatment period. Mice were then introduced into the T-junction and allowed to explore both preference compartments for 15 minutes. Sociability tests always occurred on Wednesdays or Thursdays to prevent any weekend testing.

C57 mice [2] = experiment: Social novelty preference test, C57; format: in vivo
Method: as §1
A single social novelty preference session occurred the day after the sociability test, where one compartment contained a wire mesh cup with the same NIH Swiss mouse from the previous day inside (referred to now as the “familiar” mouse) while the other compartment contained a new male NIH Swiss stranger mouse inside the cup which previously contained the dummy mouse during the sociability test. […] The position of the now familiar NIH Swiss mouse (left or right compartment) remained the same for each subject as during the sociability test the day before, thereby counterbalancing the position of the new NIH Swiss stranger mouse across subjects. As before, the new NIH Swiss stranger mice were housed separately from the experimental subjects (C57 and BTBR mice) in the colony facility, and the first time the experimental subjects ever encountered them was when they entered the compartment where they were contained. During this session, mice were weighed, administered the same injection as the day before, and returned to their home cage for a 30 min pretreatment period. Mice were then introduced into the T-junction and allowed to explore both preference compartments for 15 minutes. Social novelty tests always occurred on Thursdays or Fridays to prevent any weekend testing.

C57 mice [3] = settings: mouse, in vivo; for locomotor activity: ip
C57 mice [4] = experiment: Novelty preference test, C57; format: in vivo
Method: as §1
A single novelty preference session occurred the day after the habituation test, where one compartment contained an empty wire mesh cup and the other compartment contained an identical wire mesh cup with a novel dummy mouse inside. The position of the dummy mouse (left or right compartment) was counterbalanced across subjects. Dummy mice were constructed from 2.5″ lengths of white ¾″ PVC pipe, with a zip tie attached to one end (to mimic a tail) and two red dots drawn on the other end (to mimic eyes.) During this session, mice were weighed, administered an injection, and returned to their home cage for a 30 min pretreatment period. Mice were then introduced into the T-junction and allowed to explore both preference compartments for 15 minutes. These tests were conducted as a procedural control to ensure that any observed drug effects were not simply due to enhancement of the innate novelty preference of mice. Novelty preference sessions always occurred on Tuesdays or Wednesdays to prevent any weekend testing.

BTBR mice [5] = experiment: Radiotelemetry of locomotor activity, BTBR; format: in vivo; settings: for pattern of locomotor activity / dose-effect curve: any dose; for locomotor activity: 0 to 240 minutes
Method: (§2) The radiotelemetry assay was conducted in adult male C57 and BTBR mice (n=6 per group) in a dedicated testing room where ambient light, sound, and human contact were tightly controlled.
(§3) Prior to surgical implantation of radiotelemetry probes, mice received 3 mg/kg meloxicam (IP), and anesthesia was induced with 4% inhaled isoflurane and maintained with 1-3% isoflurane (as needed) throughout the procedure at a flow rate of 1.5 litres/minute. The abdominal area of each animal was treated with depilatory cream, then sanitized with 3 alternating scrubs with iodine and alcohol. A rostral-caudal cut approximately 1.5 cm in length was made with sterile skin scissors, providing access to the intraperitoneal cavity. A cylindrical glass-encapsulated radiotelemetry probe (model ER-4000 E-Mitter, Mini Mitter, Bend, OR, USA) was then inserted. These probes measure 15.5 mm×6.5 mm and weigh approximately 1 gram. Incisions were closed (skin layer and muscle layer separately) using reverse cutting 5-0 Vicryl absorbable sutures for the muscle layer and 5-0 nylon suture material for the skin layer. Surgeries were carried out at least 7 days before initiation of experimental conditions, allowing time for incisions to heal and for animals to recover normal body weights. Following surgery, all implanted mice were individually housed in Plexiglas cages within the telemetry room for the duration of all experiments. Implanted transmitters produce activity- and temperature-modulated signals which are sent to a receiver (model ER-4000 Receiver, Mini Mitter Co., Inc.) underneath each cage. Following use, telemetry probes were removed from carcasses, wiped with alcohol swabs, and stored in the disinfectant solution until re-use.
(§4) At least 7 days after surgical implantation of radiotelemetry probes, mice in their individual home cages were placed atop a telemetry energizer/receiver, which powered probes and transmitted their data to an interfaced computer. Upon initiation of an experimental session, the computer collected two data updates from the probes at 5 min intervals: core temperature (in ° C.) on one channel, and locomotor counts (in arbitrary units, depending on the relative position of the probe atop the receiver) on the other. After at least 60 minutes of baseline data collection, mice were removed from their cages, injected with saline or a given dose of a specific drug, then returned to the home cage 24 hours of data collection.
(§5) Food and water were always freely available in the home cage. Mice were injected with ascending doses of a given drug, with at least 48 hours separating doses. Because there are few studies of drug effects in BTBR mice, the first drug dose tested occasionally elicited unexpectedly large locomotor effects in these animals. In these cases, smaller drug doses were tested next, after a washout period of at least one full day.

BTBR mice [6] = experiment: Radiotelemetry of core temperature, BTBR; format: in vivo
Method: as §2, §3, §4, §5

[7] = 3.0 mg/kg IP, listed as racemic (50/50) MDMA, 3 mg/kg

CNC(C)Cc1ccc2c(c1)OCO2 (racemic) [racemic MDMA, 1-(1,3-benzodioxol-5-yl)-N-methylpropan-2-amine]
sociability (time spent with the stranger mouse vs dummy) (C57 mice [1]; 3.0 mg/kg IP, 3 mg/kg): moderate preference for the stranger over the dummy | sociability (time spent with the stranger mouse vs dummy) (C57 mice [1]; [7]): elicit significant effects on sociability | sociability (time spent with the stranger mouse vs dummy) (C57 mice [1]; various doses IP): dose-dependent increase in time spent with the stranger mouse | social novelty preference (new stranger mouse vs familiar mouse) (C57 mice [2]; 3.0 mg/kg IP, 3 mg/kg): strong preference for the stranger over the now familiar mouse | social novelty preference (new stranger mouse vs familiar mouse) (C57 mice [2]; [7]): elicit significant effects on sociability | social novelty preference (new stranger mouse vs familiar mouse) (C57 mice [2]; various doses IP): dose-dependent increase in time spent with the stranger mouse | social novelty preference (new stranger mouse vs familiar mouse) (C57 mice [2]; various doses IP, listed as Racemic MDMA): bi-phasic dose-response preference for stranger mouse over familiar mouse, with maximum preference documented at 3 mg/kg dose | locomotor dose-effect curve (total ambulatory activity) (C57 mice [3]): classical “inverted U-shaped” dose-effect curve | pattern of locomotor activity across the time course (C57 mice [3]): consistent with motor stereotypy | stereotypy or hyperstimulation of mice (C57 mice [3]): stereotypy or hyperstimulation of mice is seen | locomotor activity (C57 mice [3]; 10 mg/kg): lesser hyperactivity is observed | locomotor activity (C57 mice [3]; 30 mg/kg): elicit more activity than the pure S(+)-MDMA | novelty preference (time spent with the dummy mouse) (C57 mice [4]; 3.0 mg/kg IP): had no effects on locomotor activity (see FIG. 4) or novelty preference | novelty preference (time spent with the dummy mouse) (C57 mice [4]; 5.6 mg/kg IP): elicited avoidance of the dummy mouse | pattern of locomotor activity / dose-effect curve (BTBR mice [5]): No evidence of motor stereotypy; also recorded: does not follow this biphasic pattern | effect on core temperature (BTBR mice [6]; 30 mg/kg IP): results in an increase in temperature but is not as significant as S-MDMA | rise in core temperature (BTBR mice [6]; 56 mg/kg IP): ~2 degrees C. | effect on core temperature (BTBR mice [6]; various/increasing doses IP): gradual increase in core temperature | effect on core temperature (BTBR mice [6]; various/increasing doses IP, listed as racemic compositions of MDMA): dose dependent increase in temperature

CN[C@@H](C)Cc1ccc2c(c1)OCO2 [S(+)-MDMA, (2S)-1-(1,3-benzodioxol-5-yl)-N-methylpropan-2-amine]
sociability (time spent with the stranger mouse vs dummy) (C57 mice [1]; 3.0 mg/kg IP): not different from saline | sociability (time spent with the stranger mouse vs dummy) (C57 mice [1]; various doses IP): no systematic effects on sociability | social novelty preference (new stranger mouse vs familiar mouse) (C57 mice [2]; 3.0 mg/kg IP): not different from saline | social novelty preference (new stranger mouse vs familiar mouse) (C57 mice [2]; 3.0 mg/kg and 5.6 mg/kg IP): does not elicit any substantial preference for the stranger mouse | social novelty preference (new stranger mouse vs familiar mouse) (C57 mice [2]; various doses IP): no systematic effects on social novelty preference | locomotor dose-effect curve (total ambulatory activity) (C57 mice [3]): classical “inverted U-shaped” dose-effect curve | stereotypy or hyperstimulation of mice (C57 mice [3]): stereotypy or hyperstimulation of mice is seen | locomotor activity (C57 mice [3]; 10 mg/kg): elicits the greatest locomotor stimulation | novelty preference (time spent with the dummy mouse) (C57 mice [4]; various doses IP): no systematic effects on novelty preference | locomotor activity (BTBR mice [5]; 10 mg/kg IP): elicited a substantially large stimulation in motor activity | locomotor activity (BTBR mice [5]; 30 mg/kg IP): elicited a large stimulation in motor activity | pattern of locomotor activity / dose-effect curve (BTBR mice [5]): No evidence of motor stereotypy | effect on core temperature (BTBR mice [6]; 10 mg/kg IP, 10 mg/kg): elicited a similar increase in temperature | effect on core temperature (BTBR mice [6]; 10 mg/kg IP, listed as S-MDMA, 10 mg/kg): did not differ much from that observed with Racemic MDMA | jump in core temperature (BTBR mice [6]; 18 mg/kg i.p): greater than that observed by administration of 56 mg/kg i.p of Racemic MDMA | effect on core temperature (BTBR mice [6]; 30 mg/kg IP, 30 mg/kg): elicited a large hyperthermic response | effect on core temperature (BTBR mice [6]; 30 mg/kg IP, listed as S-MDMA, 30 mg/kg): strong hyperthermic response | effect on core temperature (BTBR mice [6]; various/increasing doses IP): dose dependent increase in temperature | effect on core temperature (BTBR mice [6]; various/increasing doses IP, listed as S-MDMA): dose-dependent increase in temperature
